Measured values as given in patent publication US20110178170A1, “GRISEOFULVIN ANALOGUES FOR THE TREATMENT OF CANCER BY INHIBITION OF CENTROSOMAL CLUSTERING” (DKFZ Deutsches Krebsforschungszentrum, priority 2007, published 2011).

How the values were obtained:
[1] = test system: tumor cell lines; test: cell-based screening for inhibition of centrosomal clustering (multipolar mitotic spindles); parameters: species or system human; conditions: several different tumor cell lines; screening of Penicillium extracts
From the text: Supernumerary centrosomes do almost exclusively occur in a wide variety of neoplastic disorders but not in non-transformed cells. Therefore, inhibition of centrosomal clustering with consequential induction of multipolar spindles and subsequent cell death would specifically target tumor cells with no impact on normal cells with a regular centrosome content. To identify cell-permeable small molecules that inhibit centrosomal clustering in cells with supernumerary centrosomes, we developed a cell-based screening strategy founded on the visualization of microtubules and chromatin.
Therefore, we decided to screen a fungal extract library for compounds inhibiting centrosomal clustering. The fungal extracts were selected based on a chemotaxonomic screening approach, in order to increase the chemodiversity to be tested.
The FIGS. 1 to 12 give representative examples of compounds, which have been prepared in the framework of the present invention, together with their activity, which has been determined as described below.
Cell Culture. All cell lines were cultured in Dulbecco's modified Eagle's Medium (DMEM; PAA Laboratories, Pasching, Austria) supplemented with 10% FCS (PAA). […]
Immunofluorescence. […] Immunostained cells were examined using a Zeiss Axiovert 200 M fluorescence microscope (Göttingen, Germany). […]

[2] = test system: cancer cells; conditions: compared with griseofulvin; cited from earlier work

Structure (SMILES)	inhibition of centrosome coalescence [1]	inhibiting effect on cancer cells relative to griseofulvin [2]
COC1=CC(=O)C[C@@H](C)[C@]12Oc1c(Cl)c(OC)cc(OC)c1C2=O [griseofulvin, (2-5-trans)-7-chloro-2,4,6-trimethoxy-6-methylspiro-[benzofuran-2(3H), 1-(2)-cyclohexene]-3,4-dione]	inhibitor of centrosome coalescence	–
CCCOC1=CC(=O)C[C@@H](C)[C@]12Oc1c(Cl)c(OC)cc(OC)c1C2=O	–	stronger inhibiting effect on cancer cells than griseofulvin itself
